# Patent publication US12384808B2, “Modulators of TNF-α activity” (Forward Therapeutics, Inc., priority 2022, dated 2025)
# Biological target: TNFα (Homo sapiens, UniProt P01375)
# Test: TNFα Induced HEK Blue Cellular Assay
# Type: cell-based
# Conditions: HEK Blue TNFα reporter cells, TNFα 100 pg/ml, 24 hrs at 37° C., secreted alkaline phosphatase (QUANTI-Blue) read at 620 nm; read-out: IC50 value
# Method: TNFα Induced HEK Blue Cellular Assay
# Test articles were diluted in DMSO and serially diluted into 384 well assay plate (Corning 3765), at final concentrations ranging from […] to 0.5 nM. HEK Blue™ TNFα reporter cells were added at a final density of 10,000 cell per well in assay media [DMEM (Gibco, cat #21063-029), 10% fetal bovine serum (ExcelBio, cat #FND500), 1% Penicillin-Streptomycin (Solarbio, cat #P1400-100]. TNFα (R&D 210-TA-020/CF) was then added to the assay plate at a final concentration of 100 pg/ml. This plate was then incubated for 24 hrs at 37° C. and 5% CO2. Secreted alkaline phosphatase expression was then measured using QUANTI-Blue™ (Invivogen), according to manufacturer instructions and read on an Envision microplate reader at 620 nm.
# Inhibition data for test compound over a range of concentration was plotted as percentage inhibition of the test compound (100%=maximum inhibition). IC50 values were determined after correcting for background [(sample read−mean of low control)/(mean of high control−mean of low control)] where by the low control is DMSO without stimulation and high control is DMSO with stimulation. The IC50 is defined as the concentration of test compound which produces 50% inhibition and was quantified using the 4 parameter logistic equation to fit the data.
# Sequence of TNFα (P01375 77-233 limits assumed): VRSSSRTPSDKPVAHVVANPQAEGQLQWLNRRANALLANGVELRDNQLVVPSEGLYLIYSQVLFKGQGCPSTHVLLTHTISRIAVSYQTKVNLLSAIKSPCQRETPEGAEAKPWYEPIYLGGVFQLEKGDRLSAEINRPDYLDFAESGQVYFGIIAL
row,IC50,SMILES
1,< 100 nM,"[2H]C([2H])([2H])N1C(=O)c2cccc(OC(F)(F)F)c2[C@H]2C[C@@H]1c1nc3ccc(-c4ccc(P(C)(C)=O)c(F)c4)cc3n12 [Example 128, (7R,14R)-11-(4-(dimethylphosphoryl)-3-fluorophenyl)-6-(methyl-d3)-1-(trifluoromethoxy)-6,7-dihydro-7,14-methanobenzo[f]benzo[4,5]imidazo[1,2-a][1,4]diazocin-5(14H)-one]"
2,< 100 nM,"[2H]C([2H])([2H])N1C(=O)c2cccc(OC(F)F)c2[C@H]2C[C@@H]1c1nc3ccc(-c4cc(F)c(C(C)P(C)(C)=O)cc4C)cc3n12 (single isomer, unassigned) [Example 119, (7R,14R)-1-(difluoromethoxy)-11-(4-((S or R)-1-(dimethylphosphoryl)ethyl)-5-fluoro-2-methylphenyl)-6-(methyl-d3)-6,7-dihydro-7,14-methanobenzo[f]benzo[4,5]imidazo[1,2-a][1,4]diazocin-5(14H)-one]"
3,< 100 nM,"CP(C)(=O)c1ccc(-c2ccc3nc4n(c3c2)[C@@H]2C[C@H]4N(C3CC3)C(=O)c3cccc(OC(F)F)c32)cn1 [Example 47, (1R,11R)-12-cyclopropyl-18-(difluoromethoxy)-5-[6-(dimethylphosphoryl)pyridin-3-yl]-2,9,12-triazapentacyclo[9.8.1.0^{2,10}.0^{3,8}.0^{14,19}]icosa-3(8),4,6,9,14(19),15,17-heptaen-13-one]"
4,< 100 nM,"[2H]C([2H])([2H])N1C(=O)c2cccc(OC(F)F)c2[C@H]2C[C@@H]1c1nc3cc(F)c(-c4ccc(P(C)(C)=O)c(F)c4)cc3n12 [Example 59, (7R,14R)-1-(difluoromethoxy)-11-(4-(dimethylphosphoryl)-3-fluorophenyl)-10-fluoro-6-(methyl-d3)-6,7-dihydro-7,14-methanobenzo[f]benzo[4,5]imidazo[1,2-a][1,4]diazocin-5(14H)-one]"
5,< 100 nM,"[2H]C([2H])([2H])N1C(=O)c2cccc(OC(F)F)c2[C@H]2C[C@@H]1c1nc3ccc(-c4cc(F)c(C(C)P(C)(C)=O)c(F)c4)cc3n12 (single isomer, unassigned) [Example 109, (7R,14R)-1-(difluoromethoxy)-11-(4-((R or S)-1-(dimethylphosphoryl)ethyl)-3,5-difluorophenyl)-6-(methyl-d3)-6,7-dihydro-7,14-methanobenzo[f]benzo[4,5]imidazo[1,2-a][1,4]diazocin-5(14H)-one]"
6,< 100 nM,"Cc1cc(P(C)(C)=O)ccc1-c1ccc2nc3n(c2c1)[C@@H]1C[C@H]3NC(=O)c2cccc(OC(F)F)c21 [Example 32, (1R,11R)-18-(difluoromethoxy)-5-[4-(dimethylphosphoryl)-2-methylphenyl]-2,9,12-triazapentacyclo[9.8.1.0^{2,10}.0^{3,8}.0^{14,19}]icosa-3(8),4,6,9,14(19),15,17-heptaen-13-one]"
7,< 100 nM,"[2H]C([2H])([2H])N1C(=O)c2cccc(OC(F)F)c2[C@H]2C[C@@H]1c1nc3ccc(-c4ccc(P(C)(C)=O)cc4F)cc3n12 [Example 53, (7R,14R)-1-(difluoromethoxy)-11-(4-(dimethylphosphoryl)-2-fluorophenyl)-6-(methyl-d3)-6,7-dihydro-7,14-methanobenzo[f]benzo[4,5]imidazo[1,2-a][1,4]diazocin-5(14H)-one]"
8,< 100 nM,"[2H]C([2H])([2H])N1C(=O)c2cccc(OC(F)F)c2[C@H]2C[C@@H]1c1nc3ccc(-c4ccc(OCP(C)(C)=O)nc4)cc3n12 [Example 15, (7R,14R)-1-(difluoromethoxy)-11-(6-((dimethylphosphoryl)methoxy)pyridin-3-yl)-6-(methyl-d3)-6,7-dihydro-7,14-methanobenzo[f]benzo[4,5]imidazo[1,2-a][1,4]diazocin-5(14H)-one]"
9,< 100 nM,"CN1C(=O)c2cccc(OC(F)F)c2[C@H]2C[C@@H]1c1nc3ccc(-c4ccc(OCP(C)(C)=O)c(F)c4)cc3n12 [Example 18, (1R,11R)-18-(difluoromethoxy)-5-{4-[(dimethylphosphoryl)methoxy]-3-fluorophenyl}-12-methyl-2,9,12-triazapentacyclo[9.8.1.0^{2,10}.0^{3,8}.0^{14,19}]icosa-3(8),4,6,9,14(19),15,17-heptaen-13-one]"
10,< 100 nM,"CN1C(=O)c2cccc(OC(F)F)c2[C@H]2C[C@@H]1c1nc3ccc(-c4cc(F)c(CP(C)(C)=O)cc4F)cc3n12 [Example 73, (7R,14R)-1-(difluoromethoxy)-11-(4-((dimethylphosphoryl)methyl)-2,5-difluorophenyl)-6-methyl-6,7-dihydro-7,14-methanobenzo[f]benzo[4,5]imidazo[1,2-a][1,4]diazocin-5(14H)-one]"
11,< 100 nM,"[2H]C([2H])([2H])N1C(=O)c2cccc(OC(F)F)c2[C@H]2C[C@@H]1c1nc3cc(F)c(-c4ccc(P(C)(C)=O)nc4C)cc3n12 [Example 97, (7R,14R)-1-(difluoromethoxy)-11-(6-(dimethylphosphoryl)-2-methylpyridin-3-yl)-10-fluoro-6-(methyl-d3)-6,7-dihydro-7,14-methanobenzo[f]benzo[4,5]imidazo[1,2-a][1,4]diazocin-5(14H)-one]"
12,< 100 nM,"[2H]C([2H])([2H])N1C(=O)c2cccc(OC(F)F)c2[C@H]2C[C@@H]1c1nc3ccc(-c4ccc(P(=O)(CC)CC)nc4)cc3n12 [Example 126, (7R,14R)-11-(6-(diethylphosphoryl)pyridin-3-yl)-1-(difluoromethoxy)-6-(methyl-d3)-6,7-dihydro-7,14-methanobenzo[f]benzo[4,5]imidazo[1,2-a][1,4]diazocin-5(14H)-one]"
13,< 100 nM,"CN(CP(C)(C)=O)c1ccc(-c2ccc3nc4n(c3c2)[C@@H]2C[C@H]4N(C)C(=O)c3cccc(OC(F)F)c32)cn1 [Example 30, (1R,11R)-18-(difluoromethoxy)-5-(6-{[(dimethylphosphoryl)methyl](methyl)amino}pyridin-3-yl)-12-methyl-2,9,12-triazapentacyclo[9.8.1.0^{2,10}.0^{3,8}.0^{14,19}]icosa-3(8),4,6,9,14(19),15,17-heptaen-13-one]"
14,< 100 nM,"CN1C(=O)c2cccc(OC(F)F)c2[C@H]2C[C@@H]1c1nc3ccc(-c4ccc(P(C)(C)=O)cc4Cl)cc3n12 [Example 27, (1R,11R)-5-[2-chloro-4-(dimethylphosphoryl)phenyl]-18-(difluoromethoxy)-12-methyl-2,9,12-triazapentacyclo[9.8.1.0^{2,10}.0^{3,8}.0^{14,19}]icosa-3(8),4,6,9,14(19),15,17-heptaen-13-one]"
15,< 100 nM,"[2H]C([2H])([2H])N1C(=O)c2cccc(OC(F)F)c2[C@H]2C[C@@H]1c1nc3ccc(-c4ccc(CP(C)(C)=O)c(F)c4)cc3n12 [Example 68, (7R,14R)-1-(difluoromethoxy)-11-(4-((dimethylphosphoryl)methyl)-3-fluorophenyl)-6-(methyl-d3)-6,7-dihydro-7,14-methanobenzo[f]benzo[4,5]imidazo[1,2-a][1,4]diazocin-5(14H)-one]"
16,< 100 nM,"[2H]C([2H])([2H])N1C(=O)c2cccc(OC(F)F)c2[C@H]2C[C@@H]1c1nc3ccc(-c4ccc(C(C)(O)P(C)(C)=O)cc4)cc3n12 (single isomer, unassigned) [Example 110, (7R,14R)-1-(difluoromethoxy)-11-(4-((S or R)-1-(dimethylphosphoryl)-1-hydroxyethyl)phenyl)-6-(methyl-d3)-6,7-dihydro-7,14-methanobenzo[f]benzo[4,5]imidazo[1,2-a][1,4]diazocin-5(14H)-one]"
